# Results: patent US20110214196A1, “DEVELOPMENT OF HERBICIDE-RESISTANT GRASS SPECIES” (University of Georgia Research Foundation, priority 2008, published 2011)
# Legend:
# Format in all cases: in vivo
# [1] = tested on: Large crabgrass (Digitaria sanguinalis) F2; assay: Large crabgrass dose response study, F2 from self-pollinated surviving plants
# Experimental: (§1) Plants were grown from seed collected from a turfgrass sod farm near where sethoxydim had been continuously used for twelve years. Seeds were planted in 250 mL styrofoam cups with a potting mixture of pure sand in a glasshouse with supplemental lighting (300 uE/m2/s) and 30/25 temperature. Plants were watered once daily and fertilized once a week. Large crabgrass plants were treated with herbicides when 3-5 cm tall in a dose response study. Four herbicides (sethoxydim, fluazifop, clethodim, and pinoxaden) were applied at […]. Plant injury was observed 7 and 14 DAT. The experimental design consisted of a randomized complete block design with three replications. The experiment was replicated in time.
# In response to all four herbicides, the plants initially illutrated typical ACCase symptomology, but recovered in 7-14 days after treatment (DAT). […] Seeds from self-pollinated surviving large crabgrass plants were collected and analyzed using the same dose response design as state before. […] The ED50 was approximately 10 times greater for the resistant (R) population than that for the wild type (S) population.
# [2] = tested on: bermudagrass; assay: Controlling weedy species in a plot of bermudagrass and sethoxydim-resistant seashore paspalum
# Experimental: A plot containing both bermudagrass and sethoxydim-resistant seashore paspalum is treated with 150 g a.i. ha^−1 sethoxydim once a week over a period of three months. Over the three month treatment period, it is observed that the bermudagrass slowly dies out while the sethoxydim-resistant paspalum continues to thrive, leaving the plot populated with above 80% sethoxydim-resistant paspalum.
# A plot containing both bermudagrass and sethoxydim-resistant seashore paspalum is treated with both 150 g a.i. ha^−1 sethoxydim and 150 g a.i. ha^−1 fenoxaprop once a week over a period of three months. Over the three month treatment period, it is observed that the bermudagrass slowly dies out while the sethoxydim-resistant paspalum continues to thrive, leaving the plot populated with above 80% sethoxydim-resistant paspalum.
# [3] = tested on: Large crabgrass (Digitaria sanguinalis); assay: Large crabgrass dose response study, plants from sod farm seed
# Experimental: as §1
structure (smiles),measurement,setting,value
"CCC/C(=N\OCC)C1=C(O)CC(CC(C)SCC)CC1=O (stereo not drawn) [sethoxydim, 2-[1-(ethoxyimino)-butyl]-5-[2-(ethylthio)propyl]-3-hydroxy-2-cylohexen-1-one]",effective dose required to cause 50% injury (ED50),[1],179±4 g ai/ha
same,plot populated with sethoxydim-resistant paspalum; bermudagrass slowly dies out,[2]; 150 g a.i. ha^−1 sethoxydim and 150 g a.i. ha^−1 fenoxaprop once a week over three months,above 80%
same,plot populated with sethoxydim-resistant paspalum; bermudagrass slowly dies out,[2]; 150 g a.i. ha^−1 sethoxydim once a week over three months,above 80%
same,resistance or susceptibility of this population of large crabgrass,[3]; conclusion from ED50 values,resistant
same,ED50 of resistant (R) population relative to wild type (S) population,"[3]; crabgrass, FIG. 17",approximately 10 times
same,effective dose required to cause 50% injury (ED50),"[3]; large crabgrass grown from sod farm seed, treated when 3-5 cm tall",245±37 g ai/ha
